Measurements published in patent US20240279710A1, “FLUORESCENT PROBES” (TOHOKU TECHNO ARCH CO., LTD., priority 2021, published 2024).

Experiments:
calpain = test: Combined use with calpain inhibitor in rat NMDA model (Compound 19 as probe); type: in vivo
Protocol: (§1) Carboxymethylcellulose sodium was dissolved in distilled water to prepare a 0.5% (w/v) CMC solution. An inhibitor-containing CMC solution was prepared by suspending SNJ-1945 in the 0.5% (w/v) CMC solution so that its concentration became 2.5% (w/v). Rats were each subjected to general anesthesia with isoflurane, and NMDA (10 mM, 2 μL) was administered into an eye of the rat. 2 Hours after the administration of NMDA, the inhibitor-containing CMC solution was intraperitoneally administered to the rat so that the dose of SNJ-1945 became 100 mg/kg body weight. 4 Hours after the administration of the inhibitor (6 hours after the administration of NMDA), the rat was anesthetized with isoflurane again, and Compound 19 (15 μM, 4 μL) was administered into the eye. Images of an ocular fundus were taken with F-10 20 minutes to 30 minutes after the administration of Compound 19. In a control group (N=8), the same operations as those in an SNJ-1945-administered group (N=8) except the following were performed: the 0.5% (w/v) CMC solution was administered instead of the inhibitor-containing CMC solution.
as §1, with “orally” for “intraperitoneally”, “(N=7),” for “(N=8),”
Carboxymethylcellulose sodium was dissolved in distilled water to prepare a 0.5% (w/v) CMC solution. An inhibitor-containing CMC solution was prepared by suspending SNJ-1945 in the 0.5% (w/v) CMC solution so that its concentration became 2.5% (w/v). The inhibitor-containing CMC solution was intraperitoneally administered to each of rats so that the dose of SNJ-1945 became 100 mg/kg body weight. 2 Hours after the intraperitoneal administration, the rat was subjected to general anesthesia with isoflurane, and NMDA (10 mM, 2 μL) was administered into an eye thereof. […]

SH-SY5Y cells = test: Combined use with calpain inhibitor in live cell imaging; type: cell-based; settings: inhibitor 10 μM, 5 μM Compound 19, SH-SY5Y cells; FIG. 30
Protocol: Whether or not the improvement in enzymatic reactivity between the compound of the present invention and a calpain confirmed by the above-mentioned experiment remained the same even in a cell was verified. Calpain activity imaging in SH-SY5Y cells was performed on each of Compounds 16 and 19. Specifically, the SH-SY5Y cells (American Type Culture Collection, VA, USA) were cultured in a mixed medium of Dulbecco's modified eagle medium and Ham's F-12 medium (DMEM/F-12; Thermo Fisher Scientific, Inc.) (containing 10% fetal bovine serum (FBS; Thermo Fisher Scientific, Inc., MA, USA) and 100 U/mL penicillin-100 μg/mL streptomycin (PS; Thermo Fisher Scientific, Inc.)) under the conditions of 37° C. and 5% CO2-95% air. 6×10^4 to 8×10^4 Cells/well of the cells were seeded in a multiwell plate (μ-Plate 96 Well; ibidi, Grafelfing, Germany) coated with poly-D-lysine (Thermo Fisher Scientific, Inc.) and laminin (BD Biosciences, CA, USA), and were preincubated in a culture solution. Immediately after the removal of the culture solution in the wells, 200 μL of an assay solution (a culture solution containing a 5 μM probe) was added thereto, and the cells were incubated under the conditions of 37° C. and 5% CO2-95% air. 10 Minutes after that, a bright field image and a fluorescence image were taken with a confocal microscope (LSM 710, Carl Zeiss AG, Oberkochen, Germany). […]

COCCOCCOC(=O)N[C@@H](CC(C)C)C(=O)N[C@@H](Cc1ccccc1)C(=O)C(=O)NC1CC1 [SNJ-1945]
number of HMRG-positive nerve cells compared to control group (calpain; 100 mg/kg intraperitoneally 2 hours after NMDA, Compound 19 (15 μM, 4 μL) 4 hours later, FIG. 32): significantly reduced
number of HMRG-positive nerve cells compared to control group (calpain; 100 mg/kg intraperitoneally 2 hours before NMDA, Compound 19 (15 μM, 4 μL) 6 hours after NMDA, FIG. 34): significantly reduced
number of HMRG-positive nerve cells compared to control group (calpain; 100 mg/kg orally 2 hours after NMDA, Compound 19 (15 μM, 4 μL) 4 hours later, FIG. 33): significantly reduced
number of HMRG-positive nerve cells compared to group administered any other calpain inhibitor (C2I, MDL 28,170, PD-151746) (calpain; orally as in Example 16, FIG. 35): significantly reduced
intracellular fluorescence intensity (Compound 19 probe) with vs without inhibitor (SH-SY5Y cells): attenuates
